Reference: paper PMC2991631 (Biochemical pharmacology, 2010)
Where two headings read alike, the source gives them in different places.

Columns and labels:
hCE1 (CES1) = conditions: hCE1 relative to hiCE; cited from earlier work
[1] = test system: carboxylesterases (CE) in human liver microsomal extracts; assay: CE activity; assay type: biochemical; conditions: 10μM 876
[2] = test system: carboxylesterases (hiCE, hCE1) in human liver microsomal extracts; assay type: biochemical; conditions: for CPT-11 hydrolysis + 876 / Loss in CPT-11 hydrolysis + 876 / Loss in CPT-11 hydrolysis + 876 [%]: 10μM 876

CCc1c2c(nc3ccc(OC(=O)N4CCC(N5CCCCC5)CC4)cc13)-c1cc3c(c(=O)n1C2)COC(=O)[C@]3(O)CC [CPT-11, 7-ethyl-10-[4-(1-piperidino)-1-piperidino]carbonyloxycamptothecin]
Km for CPT-11, hCE1 higher than hiCE (hCE1 (CES1)): ~ 25 fold

O=S(=O)(Nc1c(F)c(F)c(NS(=O)(=O)c2ccc(Br)cc2)c(F)c1F)c1ccc(Br)cc1 [compound 876, N,N'-(2,3,5,6-tetrafluoro-1,4-phenylene)bis(4-bromobenzenesulfonamide)]
CE activity + 876 ([1]; liver microsomal extract HG03): 3759 ± 84 nmol/mg/min
Loss in CE activity + 876 ([1]; liver microsomal extract HG03): 2816 nmol/mg/min
Loss in CE activity + 876 [%] ([1]; liver microsomal extract HG03): 42.8%
CE activity + 876 ([1]; liver microsomal extract HG74): 4341 ± 152 nmol/mg/min
Loss in CE activity + 876 ([1]; liver microsomal extract HG74): 2866 nmol/mg/min
Loss in CE activity + 876 [%] ([1]; liver microsomal extract HG74): 39.8%
CE activity + 876 ([1]; liver microsomal extract HG93): 2938 ± 87 nmol/mg/min
Loss in CE activity + 876 ([1]; liver microsomal extract HG93): 1790 nmol/mg/min
Loss in CE activity + 876 [%] ([1]; liver microsomal extract HG93): 37.9%
CE activity + 876 ([1]; liver microsomal extract HG95): 3285 ± 242 nmol/mg/min
Loss in CE activity + 876 ([1]; liver microsomal extract HG95): 1840 nmol/mg/min
Loss in CE activity + 876 [%] ([1]; liver microsomal extract HG95): 35.9%
CE activity + 876 ([1]; liver microsomal extract HG103): 2224 ± 202 nmol/mg/min
Loss in CE activity + 876 ([1]; liver microsomal extract HG103): 1482 nmol/mg/min
Loss in CE activity + 876 [%] ([1]; liver microsomal extract HG103): 40.0%
CE activity + 876 ([1]; liver microsomal extract HH13): 672 ± 47 nmol/mg/min
Loss in CE activity + 876 ([1]; liver microsomal extract HH13): 221 nmol/mg/min
Loss in CE activity + 876 [%] ([1]; liver microsomal extract HH13): 24.8%
CE activity + 876 ([1]; liver microsomal extract HH61): 3925 ± 125 nmol/mg/min
Loss in CE activity + 876 ([1]; liver microsomal extract HH61): 1953 nmol/mg/min
Loss in CE activity + 876 [%] ([1]; liver microsomal extract HH61): 33.2%
CE activity + 876 ([1]; liver microsomal extract HH74): 2235 ± 203 nmol/mg/min
Loss in CE activity + 876 ([1]; liver microsomal extract HH74): 1471 nmol/mg/min
Loss in CE activity + 876 [%] ([1]; liver microsomal extract HH74): 39.7%
CE activity + 876 ([1]; liver microsomal extract HK37): 4052 ± 120 nmol/mg/min
Loss in CE activity + 876 ([1]; liver microsomal extract HK37): 2280 nmol/mg/min
Loss in CE activity + 876 [%] ([1]; liver microsomal extract HK37): 36%
CE activity + 876 ([1]; liver microsomal extract SD003): 3434 ± 224 nmol/mg/min
Loss in CE activity + 876 ([1]; liver microsomal extract SD003): 1809 nmol/mg/min
Loss in CE activity + 876 [%] ([1]; liver microsomal extract SD003): 34.5%
CE activity + 876 ([1]; liver microsomal extract SD004): 3460 ± 234 nmol/mg/min
Loss in CE activity + 876 ([1]; liver microsomal extract SD004): 2162 nmol/mg/min
Loss in CE activity + 876 [%] ([1]; liver microsomal extract SD004): 38.5%
CE activity + 876 ([1]; liver microsomal extract SD104): 3493 ± 146 nmol/mg/min
Loss in CE activity + 876 ([1]; liver microsomal extract SD104): 1895 nmol/mg/min
Loss in CE activity + 876 [%] ([1]; liver microsomal extract SD104): 35.2%
CE activity + 876 ([1]; liver microsomal extract SD120): 2610 ± 102 nmol/mg/min
Loss in CE activity + 876 ([1]; liver microsomal extract SD120): 1885 nmol/mg/min
Loss in CE activity + 876 [%] ([1]; liver microsomal extract SD120): 41.9%
CE activity + 876 ([1]; liver microsomal extract SD123): 3874 ± 101 nmol/mg/min
Loss in CE activity + 876 ([1]; liver microsomal extract SD123): 2071 nmol/mg/min
Loss in CE activity + 876 [%] ([1]; liver microsomal extract SD123): 34.8%
CE activity + 876 ([1]; liver microsomal extract SD124): 1997 ± 189 nmol/mg/min
Loss in CE activity + 876 ([1]; liver microsomal extract SD124): 1411 nmol/mg/min
Loss in CE activity + 876 [%] ([1]; liver microsomal extract SD124): 41.4%
CE activity + 876 ([1]; liver microsomal extract SD128): 4144 ± 401 nmol/mg/min
Loss in CE activity + 876 ([1]; liver microsomal extract SD128): 2169 nmol/mg/min
Loss in CE activity + 876 [%] ([1]; liver microsomal extract SD128): 34.4%
CE activity + 876 ([1]; liver microsomal extract SD132): 5018 ± 209 nmol/mg/min
Loss in CE activity + 876 ([1]; liver microsomal extract SD132): 3176 nmol/mg/min
Loss in CE activity + 876 [%] ([1]; liver microsomal extract SD132): 38.8%
CE activity + 876 ([1]; liver microsomal extract SD134): 345 ± 28 nmol/mg/min
Loss in CE activity + 876 ([1]; liver microsomal extract SD134): 197 nmol/mg/min
Loss in CE activity + 876 [%] ([1]; liver microsomal extract SD134): 36.4%
CE activity + 876 ([1]; liver microsomal extract SD136): 1719 ± 243 nmol/mg/min
Loss in CE activity + 876 ([1]; liver microsomal extract SD136): 1477 nmol/mg/min
Loss in CE activity + 876 [%] ([1]; liver microsomal extract SD136): 46.2%
CPT-11 hydrolysis + 876 ([2]; liver microsomal extract HG03): 29.6 ± 0.64 pmol/mg/h
Loss in CPT-11 hydrolysis + 876 ([2]; liver microsomal extract HG03): 14.7 pmol/mg/h
Loss in CPT-11 hydrolysis + 876 [%] ([2]; liver microsomal extract HG03): 33.1%
CPT-11 hydrolysis + 876 ([2]; liver microsomal extract HG74): 25.8 ± 1.1 pmol/mg/h
Loss in CPT-11 hydrolysis + 876 ([2]; liver microsomal extract HG74): 14.1 pmol/mg/h
Loss in CPT-11 hydrolysis + 876 [%] ([2]; liver microsomal extract HG74): 35.3%
CPT-11 hydrolysis + 876 ([2]; liver microsomal extract HG93): 18.2 ± 0.42 pmol/mg/h
Loss in CPT-11 hydrolysis + 876 ([2]; liver microsomal extract HG93): 12.4 pmol/mg/h
Loss in CPT-11 hydrolysis + 876 [%] ([2]; liver microsomal extract HG93): 40.5%
CPT-11 hydrolysis + 876 ([2]; liver microsomal extract HG95): 16.2 ± 0.21 pmol/mg/h
Loss in CPT-11 hydrolysis + 876 ([2]; liver microsomal extract HG95): 8.30 pmol/mg/h
Loss in CPT-11 hydrolysis + 876 [%] ([2]; liver microsomal extract HG95): 33.9%
CPT-11 hydrolysis + 876 ([2]; liver microsomal extract HG103): 19.4 ± 0.14 pmol/mg/h
Loss in CPT-11 hydrolysis + 876 ([2]; liver microsomal extract HG103): 13.2 pmol/mg/h
Loss in CPT-11 hydrolysis + 876 [%] ([2]; liver microsomal extract HG103): 40.1%
CPT-11 hydrolysis + 876 ([2]; liver microsomal extract HH13): 18.5 ± 0.14 pmol/mg/h
Loss in CPT-11 hydrolysis + 876 ([2]; liver microsomal extract HH13): 15.4 pmol/mg/h
Loss in CPT-11 hydrolysis + 876 [%] ([2]; liver microsomal extract HH13): 45.4%
CPT-11 hydrolysis + 876 ([2]; liver microsomal extract HH61): 13.4 ± 0.07 pmol/mg/h
Loss in CPT-11 hydrolysis + 876 ([2]; liver microsomal extract HH61): 8.80 pmol/mg/h
Loss in CPT-11 hydrolysis + 876 [%] ([2]; liver microsomal extract HH61): 39.7%
CPT-11 hydrolysis + 876 ([2]; liver microsomal extract HH74): 7.14 ± 0.23 pmol/mg/h
Loss in CPT-11 hydrolysis + 876 ([2]; liver microsomal extract HH74): 8.22 pmol/mg/h
Loss in CPT-11 hydrolysis + 876 [%] ([2]; liver microsomal extract HH74): 53.5%
CPT-11 hydrolysis + 876 ([2]; liver microsomal extract HK37): 17.0 ± 0.57 pmol/mg/h
Loss in CPT-11 hydrolysis + 876 ([2]; liver microsomal extract HK37): 18.4 pmol/mg/h
Loss in CPT-11 hydrolysis + 876 [%] ([2]; liver microsomal extract HK37): 51.9%
CPT-11 hydrolysis + 876 ([2]; liver microsomal extract SD003): 34.2 ± 0.92 pmol/mg/h
Loss in CPT-11 hydrolysis + 876 ([2]; liver microsomal extract SD003): 20.5 pmol/mg/h
Loss in CPT-11 hydrolysis + 876 [%] ([2]; liver microsomal extract SD003): 37.5%
CPT-11 hydrolysis + 876 ([2]; liver microsomal extract SD004): 19.3 ± 1.0 pmol/mg/h
Loss in CPT-11 hydrolysis + 876 ([2]; liver microsomal extract SD004): 14.6 pmol/mg/h
Loss in CPT-11 hydrolysis + 876 [%] ([2]; liver microsomal extract SD004): 43.0%
CPT-11 hydrolysis + 876 ([2]; liver microsomal extract SD104): 13.7 ± 0.07 pmol/mg/h
Loss in CPT-11 hydrolysis + 876 ([2]; liver microsomal extract SD104): 5.80 pmol/mg/h
Loss in CPT-11 hydrolysis + 876 [%] ([2]; liver microsomal extract SD104): 29.8%
CPT-11 hydrolysis + 876 ([2]; liver microsomal extract SD120): 18.5 ± 0.14 pmol/mg/h
CPT-11 hydrolysis + 876 ([2]; liver microsomal extract SD123): 17 ± 0.14 pmol/mg/h
Loss in CPT-11 hydrolysis + 876 ([2]; liver microsomal extract SD123): 13.0 pmol/mg/h
Loss in CPT-11 hydrolysis + 876 [%] ([2]; liver microsomal extract SD123): 43.2%
CPT-11 hydrolysis + 876 ([2]; liver microsomal extract SD124): 15.8 ± 0.28 pmol/mg/h
Loss in CPT-11 hydrolysis + 876 ([2]; liver microsomal extract SD124): 11.3 pmol/mg/h
Loss in CPT-11 hydrolysis + 876 [%] ([2]; liver microsomal extract SD124): 41.7%
CPT-11 hydrolysis + 876 ([2]; liver microsomal extract SD128): 16.5 ± 0.35 pmol/mg/h
Loss in CPT-11 hydrolysis + 876 ([2]; liver microsomal extract SD128): 13.1 pmol/mg/h
Loss in CPT-11 hydrolysis + 876 [%] ([2]; liver microsomal extract SD128): 44.3%
CPT-11 hydrolysis + 876 ([2]; liver microsomal extract SD132): 14.1 ± 0.50 pmol/mg/h
Loss in CPT-11 hydrolysis + 876 ([2]; liver microsomal extract SD132): 12.6 pmol/mg/h
Loss in CPT-11 hydrolysis + 876 [%] ([2]; liver microsomal extract SD132): 47.2%
CPT-11 hydrolysis + 876 ([2]; liver microsomal extract SD134): 8.49 ± 0.18 pmol/mg/h
Loss in CPT-11 hydrolysis + 876 ([2]; liver microsomal extract SD134): 8.96 pmol/mg/h
Loss in CPT-11 hydrolysis + 876 [%] ([2]; liver microsomal extract SD134): 51.3%
CPT-11 hydrolysis + 876 ([2]; liver microsomal extract SD136): 33.6 ± 0.64 pmol/mg/h
Loss in CPT-11 hydrolysis + 876 ([2]; liver microsomal extract SD136): 21.8 pmol/mg/h
Loss in CPT-11 hydrolysis + 876 [%] ([2]; liver microsomal extract SD136): 39.3%
effect on CPT-11 activation in liver microsomal samples ([2]; selective hiCE inhibitor 876): unable to reduce the levels of CPT-11 activation in liver microsomal samples to zero
